# Patent US8802597B2, “Herbicidal pyrimidines” (E I du Pont de Nemours and Company, priority 2003, dated 2014)
# Legend:
# Type in all cases: in vivo
# [1] = tested on: ducksalad (Heteranthera limosa); experiment: Test E flooded paddy water application; details: Flood, 21 days, scale 0 to 100 (0 no effect, 100 complete control)
# Method in brief: (§1)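 Weeds sown in sterilized Tama silt loam (2.6% organic matter), greenhouse 29.5/26.7° C, 16-h photoperiod; at 2.0–2.5-leaf stage pots flooded to 3 cm and compound added to paddy water. Visual rating vs untreated controls after 21 days, 0 (no effect) to 100 (complete control).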
# [2] = tested on: purple redstem (Ammannia coccinea); experiment: Test E flooded paddy water application; details: Flood, 21 days, scale 0 to 100 (0 no effect, 100 complete control)
# Method in brief: as §1
# [3] = tested on: smallflower umbrella sedge (Cyperus difformis); experiment: Test E flooded paddy water application; details: Flood, 21 days, scale 0 to 100 (0 no effect, 100 complete control)
# Method in brief: as §1
# [4] = tested on: rice flatsedge (Cyperus iria); experiment: Test E flooded paddy water application; details: Flood, 21 days, scale 0 to 100 (0 no effect, 100 complete control)
# Method in brief: as §1
# [5] = tested on: transplanted rice seedlings (Oryza sativa cv. ‘Japonica-M202’); experiment: Test E flooded paddy water application; details: Flood, 21 days, scale 0 to 100 (0 no effect, 100 complete control)
# Method in brief: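 Response scored visually on a 0–100 scale (100 = complete control) at 21 days against untreated pots. Treatment was into paddy water 3 cm deep over silt loam, with plants at the 2.0–2.5-leaf stage, grown under 16-h light at 29.5/26.7 °C day/night.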
# [6] = tested on: water seeded rice seedlings (Oryza sativa cv. ‘Japonica-M202’); experiment: Test E flooded paddy water application; details: Flood, 21 days, scale 0 to 100 (0 no effect, 100 complete control)
# Method in brief: as §1
# [7] = tested on: late watergrass (Echinochloa oryzicola); experiment: Test E flooded paddy water application; details: Flood, 21 days, scale 0 to 100 (0 no effect, 100 complete control)
# Method in brief: as §1
# [8] = tested on: barnyardgrass (Echinochloa crus-galli); experiment: Test E flooded paddy water application; details: Flood, 21 days, scale 0 to 100 (0 no effect, 100 complete control)
# Method in brief: as §1
# [9] = tested on: junglerice (Echinochloa colona); experiment: Test E flooded paddy water application; details: Flood, 21 days, scale 0 to 100 (0 no effect, 100 complete control)
# Method in brief: as §1
# [10] = tested on: bearded (brdd.) sprangletop (Leptochloa fusca ssp. fascicularis); experiment: Test E flooded paddy water application; details: Flood, 21 days, scale 0 to 100 (0 no effect, 100 complete control)
# Method in brief: as §1
# [11] = tested on: early watergrass (Echinochloa oryzoides); experiment: Test E flooded paddy water application; details: Flood, 21 days, scale 0 to 100 (0 no effect, 100 complete control)
# Method in brief: as §1
# [12] = tested on: velvetleaf (Abutilon theophrasti); experiment: Test A pre/postemergence
# Method in brief: (§2)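 Ratings: 0 = no effect, 100 = complete control, assessed visually about ten days post-treatment in a greenhouse. Applications: soil-directed preemergence spray and postemergence spray on 1- to 2-leaf plants, both using a surfactant-containing non-phytotoxic solvent formulation.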
# [13] = tested on: redroot pigweed (Amaranthus retroflexus); experiment: Test A pre/postemergence
# Method in brief: as §2
# [14] = tested on: morningglory (Ipomoea spp.); experiment: Test A pre/postemergence
# Method in brief: as §2
# [15] = tested on: giant foxtail (Setaria faberi); experiment: Test A pre/postemergence
# Method in brief: as §2
# [16] = tested on: crabgrass (Digitaria sanguinalis); experiment: Test A pre/postemergence
# Method in brief: as §2
# [17] = tested on: barnyardgrass (Echinochloa crus-galli); experiment: Test A pre/postemergence
# Method in brief: as §2
# [18] = Postemergence, 125 g ai/ha, 0 to 100 scale (0 no effect, 100 complete control)
# [19] = Postemergence, 500 g ai/ha, 0 to 100 scale (0 no effect, 100 complete control)
# [20] = Preemergence, 125 g ai/ha, 0 to 100 scale where 0 is no effect and 100 is complete control, approximately ten days
# [21] = Preemergence, 500 g ai/ha, 0 to 100 scale where 0 is no effect and 100 is complete control, approximately ten days
compound,measurement,setting,value
CCOC(=O)c1nc(-c2ccc(C)c(C)c2)nc(N)c1Cl [Compound 71],Ducksalad plant response rating,[1]; 32 g ai/ha,100
same,Ducksalad plant response rating,[1]; 64 g ai/ha,100
same,Ducksalad plant response rating,[1]; 125 g ai/ha,100
same,Ducksalad plant response rating,[1]; 250 g ai/ha,100
same,"Plant response rating, Ducksalad",[1]; 16 g ai/ha,100
same,Redstem plant response rating,[2]; 32 g ai/ha,0
same,Redstem plant response rating,[2]; 64 g ai/ha,0
same,Redstem plant response rating,[2]; 125 g ai/ha,0
same,Redstem plant response rating,[2]; 250 g ai/ha,30
same,"Plant response rating, Redstem",[2]; 16 g ai/ha,0
same,"Sedge, Umbrella plant response rating",[3]; 32 g ai/ha,0
same,"Sedge, Umbrella plant response rating",[3]; 64 g ai/ha,0
same,"Sedge, Umbrella plant response rating",[3]; 125 g ai/ha,30
same,"Sedge, Umbrella plant response rating",[3]; 250 g ai/ha,70
same,"Plant response rating, Sedge, Umbrella",[3]; 16 g ai/ha,0
same,"Flatsedge, Rice plant response rating",[4]; 32 g ai/ha,0
same,"Flatsedge, Rice plant response rating",[4]; 64 g ai/ha,0
same,"Flatsedge, Rice plant response rating",[4]; 125 g ai/ha,0
same,"Flatsedge, Rice plant response rating",[4]; 250 g ai/ha,0
same,"Plant response rating, Flatsedge, Rice",[4]; 16 g ai/ha,0
same,"Rice, Transplanted plant response rating",[5]; 32 g ai/ha,0
same,"Rice, Transplanted plant response rating",[5]; 64 g ai/ha,0
same,"Rice, Transplanted plant response rating",[5]; 125 g ai/ha,0
same,"Rice, Transplanted plant response rating",[5]; 250 g ai/ha,0
same,"Plant response rating, Rice, Transplanted",[5]; 16 g ai/ha,0
same,"Rice, Water Seeded plant response rating",[6]; 32 g ai/ha,0
same,"Rice, Water Seeded plant response rating",[6]; 64 g ai/ha,0
same,"Rice, Water Seeded plant response rating",[6]; 125 g ai/ha,0
same,"Rice, Water Seeded plant response rating",[6]; 250 g ai/ha,0
same,"Plant response rating, Rice, Water Seeded",[6]; 16 g ai/ha,0
same,"Watergrass, Late plant response rating",[7]; 32 g ai/ha,0
same,"Watergrass, Late plant response rating",[7]; 64 g ai/ha,0
same,"Watergrass, Late plant response rating",[7]; 125 g ai/ha,0
same,"Watergrass, Late plant response rating",[7]; 250 g ai/ha,0
same,"Plant response rating, Watergrass, Late",[7]; 16 g ai/ha,0
same,Barnyardgrass plant response rating,[8]; 32 g ai/ha,0
same,Barnyardgrass plant response rating,[8]; 64 g ai/ha,0
same,Barnyardgrass plant response rating,[8]; 125 g ai/ha,0
same,Barnyardgrass plant response rating,[8]; 250 g ai/ha,60
same,"Plant response rating, Barnyardgrass",[8]; 16 g ai/ha,0
same,Junglerice plant response rating,[9]; 32 g ai/ha,0
same,Junglerice plant response rating,[9]; 64 g ai/ha,0
same,Junglerice plant response rating,[9]; 125 g ai/ha,0
same,Junglerice plant response rating,[9]; 250 g ai/ha,45
same,"Plant response rating, Junglerice",[9]; 16 g ai/ha,0
same,"Sprangletop, Brdd. plant response rating",[10]; 32 g ai/ha,0
same,"Sprangletop, Brdd. plant response rating",[10]; 125 g ai/ha,0
same,"Sprangletop, Brdd. plant response rating",[10]; 250 g ai/ha,60
same,"Watergrass, Early plant response rating",[11]; 32 g ai/ha,0
same,"Watergrass, Early plant response rating",[11]; 64 g ai/ha,0
same,"Watergrass, Early plant response rating",[11]; 125 g ai/ha,0
same,"Watergrass, Early plant response rating",[11]; 250 g ai/ha,0
same,"Plant response rating, Watergrass, Early",[11]; 16 g ai/ha,0
same,"Plant response rating, Velvetleaf",[12]; [18],40
same,"Plant response rating, Velvetleaf",[12]; [19],55
same,"Plant response rating, Velvetleaf",[12]; [20],30
same,"Plant response rating, Velvetleaf",[12]; [21],50
same,"Plant response rating, Pigweed",[13]; [18],5
same,"Plant response rating, Pigweed",[13]; [19],30
same,"Plant response rating, Pigweed",[13]; [20],0
same,"Plant response rating, Pigweed",[13]; [21],15
same,"Plant response rating, Morningglory",[14]; [18],0
same,"Plant response rating, Morningglory",[14]; [19],0
same,"Plant response rating, Morningglory",[14]; [20],0
same,"Plant response rating, Morningglory",[14]; [21],0
same,"Plant response rating, Foxtail, Giant",[15]; [18],0
same,"Plant response rating, Foxtail, Giant",[15]; [19],0
same,"Plant response rating, Foxtail, Giant",[15]; [20],0
same,"Plant response rating, Foxtail, Giant",[15]; [21],0
same,"Plant response rating, Crabgrass",[16]; [18],0
same,"Plant response rating, Crabgrass",[16]; [19],5
same,"Plant response rating, Crabgrass",[16]; [20],0
same,"Plant response rating, Crabgrass",[16]; [21],0
same,"Plant response rating, Barnyardgrass",[17]; [18],0
same,"Plant response rating, Barnyardgrass",[17]; [19],0
same,"Plant response rating, Barnyardgrass",[17]; [20],0
same,"Plant response rating, Barnyardgrass",[17]; [21],0
